Source: ChEMBL document CHEMBL1145452, “In vitro structure-activity relationship and in vivo characterization of 1-(aryl)-3-(4-(amino)benzyl)urea transient receptor potential vanilloid 1 antagonists” (J Med Chem, 2007)
In brackets after ≈: the same amount, converted by molar mass.

How the values were obtained:
[1] = molecular target: Transient receptor potential cation channel subfamily V member 1 (Homo sapiens, UniProt Q8NER1); assay: Antagonist activity at human TRPV1 receptor by calcium influx assay; type: functional
[2] = tested on: Liver microsomes; assay: Stability in rat liver microsomes at 0.5 uM after 30 mins; type: ADME, Microsome; details: 0.5 h
[3] = tested on: Liver microsomes; assay: Stability in human liver microsomes at 0.5 uM after 30 mins; type: ADME, Microsome; details: 0.5 h
[4] = Volume of distribution in rat at 10 umol/kg; type: ADME, organism-based; details: in vivo, read-out: Vbeta
[5] = tested on: Rattus norvegicus; assay: Effect on CFA-induced thermal hyperalgesia in po dosed rat; type: functional
[6] = Plasma clearance in rat at 10 umol/kg; type: ADME, organism-based
[7] = Half life in rat at 10 umol/kg; type: ADME, organism-based; details: in vivo
[8] = Cmax in rat at 10 umol/kg, po; type: ADME, organism-based; design: dose 10 umol/kg, route oral; details: in vivo
[9] = Oral bioavailability in rat at 10 umol/kg, po; type: ADME, organism-based; details: in vivo
[10] = Oral bioavailability in dog; type: ADME, organism-based, Canis lupus familiaris; details: in vivo
[11] = Protein binding in rat plasma; type: ADME, cell-free; details: read-out: PPB (converted)
[12] = molecular target: T1, Adenosine receptor A3 (Homo sapiens, UniProt P0DMS8); assay: Binding affinity to adenosine A3 receptor
T1 sequence (P0DMS8 whole entry): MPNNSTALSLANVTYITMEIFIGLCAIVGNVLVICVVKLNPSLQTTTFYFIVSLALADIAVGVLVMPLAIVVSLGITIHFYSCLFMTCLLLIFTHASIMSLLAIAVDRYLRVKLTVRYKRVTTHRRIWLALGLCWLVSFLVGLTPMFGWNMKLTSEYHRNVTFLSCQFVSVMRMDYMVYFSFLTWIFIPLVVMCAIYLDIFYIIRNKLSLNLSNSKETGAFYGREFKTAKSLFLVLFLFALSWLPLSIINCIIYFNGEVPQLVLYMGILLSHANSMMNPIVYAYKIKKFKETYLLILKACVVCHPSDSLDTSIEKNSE

[13] = molecular target: Translocator protein (Homo sapiens, UniProt P30536); assay: Binding affinity to peripheral benzodiazepine receptor
[14] = Binding affinity to sodium channel; design: species or system Homo sapiens
[15] = Aqueous solubility at pH 2.0; type: physicochemical
[16] = Aqueous solubility at pH 6.8; type: physicochemical; details: buffer
[17] = organism: Homo sapiens; assay: Protein binding in human plasma; details: read-out: PPB (converted)

Sequence of Transient receptor potential cation channel subfamily V member 1 (Q8NER1 whole entry): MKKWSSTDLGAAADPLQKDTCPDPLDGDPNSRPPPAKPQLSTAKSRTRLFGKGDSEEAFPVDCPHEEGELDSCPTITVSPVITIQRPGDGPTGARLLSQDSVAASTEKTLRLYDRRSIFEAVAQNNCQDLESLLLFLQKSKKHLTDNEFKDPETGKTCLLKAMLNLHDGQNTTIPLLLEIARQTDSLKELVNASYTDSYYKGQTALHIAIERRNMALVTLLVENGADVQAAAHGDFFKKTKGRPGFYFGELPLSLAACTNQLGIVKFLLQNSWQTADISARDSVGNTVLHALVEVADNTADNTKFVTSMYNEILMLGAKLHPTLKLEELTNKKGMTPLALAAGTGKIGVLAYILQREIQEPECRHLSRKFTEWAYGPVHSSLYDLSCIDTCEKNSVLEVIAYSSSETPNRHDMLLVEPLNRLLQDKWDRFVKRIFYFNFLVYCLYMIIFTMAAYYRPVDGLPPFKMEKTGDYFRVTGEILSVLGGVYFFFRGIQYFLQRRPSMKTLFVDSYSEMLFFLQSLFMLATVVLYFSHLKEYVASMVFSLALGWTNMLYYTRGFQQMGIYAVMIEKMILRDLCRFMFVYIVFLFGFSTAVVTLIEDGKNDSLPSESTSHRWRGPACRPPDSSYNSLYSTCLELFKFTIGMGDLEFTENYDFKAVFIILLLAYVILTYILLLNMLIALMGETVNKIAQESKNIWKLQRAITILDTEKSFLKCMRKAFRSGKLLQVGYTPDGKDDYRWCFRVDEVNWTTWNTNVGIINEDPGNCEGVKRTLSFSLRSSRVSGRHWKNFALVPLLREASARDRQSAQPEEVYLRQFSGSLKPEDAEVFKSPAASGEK
Sequence of Translocator protein (P30536 whole entry): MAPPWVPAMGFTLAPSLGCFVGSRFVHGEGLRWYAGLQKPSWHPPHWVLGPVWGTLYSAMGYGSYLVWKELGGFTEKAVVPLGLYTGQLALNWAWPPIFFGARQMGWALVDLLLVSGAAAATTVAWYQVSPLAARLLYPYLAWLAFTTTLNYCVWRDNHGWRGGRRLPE

Structure (SMILES) | IC50 [1] | further results
Cc1cc2c(NC(=O)NCc3ccc(N4Cc5ccccc5C4)c(F)c3)cccc2cn1 | 7360 nM | –
O=C(NCc1ccc(N2CCCCCC2)cc1Cl)Nc1cccc2[nH]ncc12 | 190 nM | –
O=C(NCc1ccc(N2CCCCCC2)cc1C(F)(F)F)Nc1cccc2[nH]ncc12 | 133 nM | –
O=C(NCc1ccc(N2CCOCC2)cc1)Nc1cccc2cnc(Cl)cc12 | 156 nM | –
O=C(NCc1cc(F)c(N2[C@@H]3CC[C@H]2CC2(C3)OCCO2)cc1F)Nc1cccc2[nH]ncc12 | 82 nM | –
O=C1C[C@H]2CC[C@@H](C1)N2c1cc(F)c(CNC(=O)Nc2cccc3[nH]ncc23)cc1F | 157 nM | –
O=C(NCc1ccc(N2CCOCC2)cc1)Nc1cccc2cnccc12 | 91 nM | –
O=C(NCc1ccc(N2[C@@H]3CCC[C@H]2CC3)c(C(F)(F)F)c1)Nc1cccc2[nH]ncc12 | 26.9 nM | Stability [2]: 315 pmol/min/mg; Stability [3]: 445 pmol/min/mg; Vd [4]: 2.1 L/kg; ED50 [5]: 20 µmol/kg; clearance [6]: 16.7 mL/min/kg; half-life [7]: 84 min; Cmax [8]: 240 ng/mL; bioavailability [9]: 21%; bioavailability [10]: 46%; fraction unbound [11]: 0.014; IC50 [12]: > 5 µM; IC50 [13]: > 5 µM; IC50 [14]: > 5 µM; solubility [15]: 14 µg/mL (≈ 31.6 µM); solubility [16]: < 1 ng/mL; fraction unbound [17]: 0.03
O=C(NCc1ccc(N2[C@@H]3CCC[C@H]2CC3)c(Br)c1)Nc1cccc2[nH]ncc12 | 43.2 nM | –
O=C(NCc1ccc(N2[C@@H]3CCC[C@H]2CC3)c(F)c1)Nc1cccc2[nH]ncc12 | 14.8 nM | Stability [2]: 394 pmol/min/mg; Stability [3]: 516 pmol/min/mg
CC(C)c1cc(N2[C@@H]3CCC[C@H]2CC3)ccc1CNC(=O)Nc1cccc2[nH]ncc12 | 35.3 nM | –
O=C(NCc1ccc(N2[C@@H]3CCC[C@H]2CC3)cc1)Nc1cccc2[nH]ncc12 | 18 nM | –
O=C(NCc1ccc(N2[C@@H]3CCC[C@H]2CC3)cc1C(F)(F)F)Nc1cccc2[nH]ncc12 | 54.5 nM | –
CC1CN(c2ccc(CNC(=O)Nc3cccc4cnccc34)cc2)CC(C)O1 (stereo not drawn) | 258 nM | –
CN(C)c1ccc(CNC(=O)Nc2cccc3cnccc23)cc1 | 157 nM | –
CCN1CCc2cc(CNC(=O)Nc3cccc4[nH]ncc34)ccc21 | 285 nM | –
Cn1c2ccccc2c2cc(CNC(=O)Nc3cccc4[nH]ncc34)ccc21 | 902 nM | –
O=C(NCc1cc(F)c(N2[C@@H]3CCC[C@H]2CC3)c(F)c1)Nc1cccc2[nH]ncc12 | 12.6 nM | –
O=C(NCc1cc(F)c(N2CCCCCC2)c(F)c1)Nc1cccc2[nH]ncc12 | 39.3 nM | –
O=C(NCc1ccc(N2[C@@H]3CCC[C@H]2CC3)cc1Cl)Nc1cccc2[nH]ncc12 | 58.8 nM | –
O=C(NCc1ccc(N2[C@@H]3CCC[C@H]2CC3)c(Cl)c1)Nc1cccc2[nH]ncc12 | 20.4 nM | –
O=C(NCc1ccc(N2[C@@H]3CCC[C@H]2CC3)c(F)c1F)Nc1cccc2[nH]ncc12 | 25.5 nM | –
Cc1cc(N2[C@@H]3CCC[C@H]2CC3)ccc1CNC(=O)Nc1cccc2[nH]ncc12 | 29 nM | –

Continued by falling IC50 [1], values first:

IC50 [1] | Structure (SMILES) | further results
19.8 nM | Cc1cc(CNC(=O)Nc2cccc3[nH]ncc23)ccc1N1[C@@H]2CCC[C@H]1CC2 | –
19 nM | Cn1ncc2c(NC(=O)NCc3ccc(N4[C@@H]5CCC[C@H]4CC5)cc3Cc3ccccc3)cccc21 | –
14.2 nM | O=C(NCc1ccc(N2CCCCCC2)c(F)c1)Nc1cccc2[nH]ncc12 | –
10.3 nM | CC(C)(C)CCc1cc(N2[C@@H]3CCC[C@H]2CC3)ccc1CNC(=O)Nc1cccc2[nH]ncc12 | –
9.8 nM | Nc1cc2c(NC(=O)NCc3ccc(N4CCCCCC4)cc3)cccc2cn1 | –
9.3 nM | CC1CCN(c2ccc(CNC(=O)Nc3cccc4cnccc34)cc2)CC1 | –
9.3 nM | O=C(NCc1cc(F)c(N2CCOCC2)c(F)c1)Nc1cccc2cnccc12 | –
7.3 nM | O=C(NCc1ccc(N2CCCCC2)cc1)Nc1cccc2cnccc12 | –
5.7 nM | O=C(NCc1ccc(N2CCCCCC2)cc1C(F)(F)F)Nc1cccc2cnccc12 | –
5.2 nM | O=C(NCc1ccc(N2CCCCCC2)cc1Cl)Nc1cccc2cnccc12 | –
4.7 nM | O=C(NCc1ccc(N2CCCCCCC2)cc1)Nc1cccc2cnccc12 | –
4.6 nM | O=C(NCc1ccc(N2CCCCCC2)c(C(F)(F)F)c1)Nc1cccc2cnccc12 | Stability [2]: 689 pmol/min/mg; Stability [3]: 643 pmol/min/mg
3.8 nM | Cc1cc2c(NC(=O)NCc3ccc(N4CCCCCC4)cc3)cccc2cn1 | –
3.3 nM | O=C(NCc1ccc(N2[C@@H]3CCC[C@H]2CC3)cc1)Nc1cccc2cnccc12 | Stability [2]: 247 pmol/min/mg; Stability [3]: 818 pmol/min/mg
3.3 nM | O=C(NCc1ccc(N2CCCCCC2)cc1)Nc1cccc2cnccc12 | –
2.8 nM | O=C(NCc1ccc(N2CCCCCC2)c(F)c1)Nc1cccc2cnccc12 | Stability [2]: 366 pmol/min/mg; Stability [3]: 1223 pmol/min/mg; Vd [4]: 1.8 L/kg; ED50 [5]: 30 µmol/kg; clearance [6]: 30 mL/min/kg; half-life [7]: 41.4 min; Cmax [8]: 150 ng/mL; bioavailability [9]: 10%; bioavailability [10]: 18%
2.1 nM | O=C(NCc1ccc(C(F)(F)F)cc1)Nc1cccc2cnccc12 | Stability [2]: 383 pmol/min/mg; Stability [3]: 135 pmol/min/mg
